Literature values as cited in patent US6103487A, “Method of treating cancer” (Merck & Co., Inc., priority 1998, dated 2000).

Key:
[1] = system: farnesyl-protein transferase; settings: by inhibiting HMG-CoA reductase
Ras = settings: inhibits the rate-limiting step in the isoprenoid biosynthetic pathway; positive control

Row | SMILES | Indirect inhibition of farnesyl-protein transferase in vivo [1] | block of Ras processing in cells (Ras)
1 | CC[C@H](C)C(=O)O[C@H]1CCC=C2C=C[C@H](C)[C@H](CC[C@@H]3C[C@@H](O)CC(=O)O3)[C@H]21 [compactin] | Indirect inhibition of farnesyl-protein transferase in vivo has been demonstrated | –
2 | CC[C@H](C)C(=O)O[C@H]1C[C@@H](C)C=C2C=C[C@H](C)[C@H](CC[C@@H]3C[C@@H](O)CC(=O)O3)[C@H]21 [lovastatin] | Indirect inhibition of farnesyl-protein transferase in vivo has been demonstrated | blocks Ras processing in cells
